The source of these data is ChEMBL document CHEMBL3797116, “Modification on the O-glucoside of Sergliflozin-A: A new strategy for SGLT2 inhibitor design” (Bioorg Med Chem Lett, 2016).

Data set [1] can be described thus: (§1) Metabolic stability in rat liver homogenate assessed as compound hydrolysis at 10 uM after 8 hrs. It is filed as ADME, tissue-based. The following applies: liver homogenate, read-out: Drug degradation.
Data set [2] relates to Rattus norvegicus. The experiment in a line: In vivo hypoglycemic activity in Sprague-Dawley rat assessed as urinary […] glucose level per 200g of animal body weight measured for 8 to 12 hrs at 5 mL/kg, po (reference value: 0.21 +/- 0.01 mg). It is filed as functional, Urine.
Data set [3] concerns Rattus norvegicus. The experiment in a line: In vivo hypoglycemic activity in Sprague-Dawley rat assessed as urinary […] glucose level per 200g of animal body weight measured for 0 to 4 hrs at 5 mL/kg, po (reference value: 0.26 +/- 0.04 mg). It is filed as functional, Urine.
For data set [4], the system named is Rattus norvegicus. The experiment in a line: In vivo hypoglycemic activity in Sprague-Dawley rat assessed as urinary […] glucose level per 200g of animal body weight measured for 12 to 24 hrs at 5 mL/kg, po (reference value: 1.45 +/- 0.28 mg). It is filed as functional, Urine.
In data set [5] the test system is Rattus norvegicus. As to the kind of experiment: In vivo hypoglycemic activity in Sprague-Dawley rat assessed as urinary […] glucose level per 200g of animal body weight measured for 4 to 8 hrs at 5 mL/kg, po (reference value: 0.14 +/- 0.03 mg). It counts as functional, Urine.
Data set [6] has as its system Rattus norvegicus. The experiment in a line: In vivo hypoglycemic activity in Sprague-Dawley rat assessed as urinary […] glucose level per 200g of animal body weight measured for 0 to 24 hrs at 5 mL/kg, po (reference value: 2.03 +/- 0.34 mg). It is filed as functional, Urine.
Data set [7] deals with Rattus norvegicus. The experiment in a line: In vivo hypoglycemic activity in Sprague-Dawley rat assessed as reduction in urinary […] glucose level per 200g of animal body weight measured for 0 to 24 hrs at 5 mL/kg, po. It counts as functional, Urine. The arrangement: scale not given: the % may be the effect or the level left.
A short description of data set [8]: Octanol-phosphate buffer saline partition coefficient, logP of the compound measured after 24 hrs by HPLC method. It is filed as physicochemical.
The subject of data set [9] is Rattus norvegicus. As to the kind of experiment: In vivo hypoglycemic activity in Sprague-Dawley rat assessed as urinary […] glucose level per 200g of animal body weight measured for 6 to 24 hrs at 5 mL/kg, po. It is filed as functional, Urine.
The subject of data set [10] is Rattus norvegicus. The experiment in a line: In vivo hypoglycemic activity in Sprague-Dawley rat assessed as urinary […] glucose level per 200g of animal body weight measured for 0 to 6 hrs at 5 mL/kg, po. It counts as functional, Urine.
Data set [11] has as its system Liver. The description is as §1. It counts as ADME, tissue-based. The following applies: tissue homogenate, 8 h, 10 µM.

Where only a bound is given, the exact number is not on record here.

For `Cc1cc(=O)oc2cc(O[C@@H]3O[C@H](CO)[C@@H](O)[C@H](O)[C@H]3O)ccc12`, in [1], the metabolised at 8 h, 10 µM is above 80%.

With `COc1ccc(Cc2ccccc2O[C@@H]2O[C@H](CO)[C@@H](O)C[C@H]2O)cc1`, the Activity is listed as 0.21 mg in data set [2]; 0.36 mg in [3]; 0.44 mg in data set [4]; 0.23 mg in data set [5]; 1.24 mg in data set [6].

Consider `COc1ccc(Cc2ccccc2O[C@@H]2O[C@H](CO)[C@@H](OC)[C@H](O)[C@H]2O)cc1`, for which the Activity is on record as 73% in [7]; 11.01 mg in data set [2]; 102.46 mg in data set [3]; 0.78 mg in data set [4]; 58.68 mg in data set [5]; 172.94 mg in data set [6]. In data set [8], the logP (commonly the decadic logarithm of the partition coefficient of the neutral form, usually between octanol and water) at 24 h worked out at 1.83.

For `COc1ccc(Cc2ccccc2O[C@@H]2O[C@H](CO)[C@@H](O)[C@H](O)[C@H]2OC)cc1`, the Activity in data set [2] was determined as 0.02 mg; in data set [3], 0.11 mg; in data set [4] it was 0.11 mg; in [5], 0.03 mg; in data set [6], 0.27 mg.

With `COc1ccc(Cc2ccccc2O[C@@H]2O[C@H](CO)[C@@H](O)[C@H](O)[C@H]2F)cc1`, the Activity in data set [9] stood at 11 mg; in data set [6], 16 mg; in data set [10], 4.9 mg.

Regarding `COc1ccc(Cc2ccccc2O[C@@H]2O[C@H](CF)[C@@H](O)[C@H](O)[C@H]2O)cc1`, the Activity amounted to 0.13 mg in data set [2]; 2.34 mg in data set [3]; 1.02 mg in data set [4]; 1.03 mg in data set [5]; 4.52 mg in data set [6].

Consider `COC[C@H]1O[C@@H](Oc2ccccc2Cc2ccc(OC)cc2)[C@H](O)[C@@H](O)[C@@H]1O`, for which the Activity in [7] amounted to 31%; in data set [2], 7.19 mg; in data set [3] it was 61.23 mg; in [4] it was 0.76 mg; in [5], 4.11 mg; in data set [6] it was 73.29 mg.

As for `COc1ccc(Cc2ccccc2O[C@@H]2O[C@H](CO)[C@@H](O)[C@H](OC)[C@H]2O)cc1`, the Activity is 0.65 mg in [2]; 13.67 mg in data set [3]; 0.24 mg in data set [4]; 4.11 mg in data set [5]; 18.67 mg in data set [6].

With `CO[C@H]1[C@H](O)[C@@H](O)[C@H](Oc2ccc3oc(=O)cc(C)c3c2)O[C@@H]1CO`, the Stability entry in [11] was “Stable”.

For `COc1ccc(Cc2ccccc2O[C@@H]2O[C@H](C)[C@@H](O)[C@H](O)[C@H]2O)cc1`, the Activity in data set [2] is recorded as 0.07 mg; in data set [3] it was 33.36 mg; in data set [4] it was 0.8 mg; in data set [5], 0.69 mg; in data set [6], 34.91 mg.

Take `COc1ccc(Cc2ccccc2O[C@@H]2O[C@H](CO)C[C@H](O)[C@H]2O)cc1`: the Activity worked out at 0.42 mg in data set [2]; 8.21 mg in data set [3]; 1.73 mg in [4]; 0.68 mg in [5]; 11.05 mg in [6].

Consider `COc1ccc(Cc2ccccc2O[C@@H]2O[C@H](CO)[C@@H](O)[C@H](O)[C@H]2O)cc1` [SERGLIFLOZIN A], for which the Activity in [2] is on record as 33.8 mg; in [3], 126.99 mg; in data set [4], 39.44 mg; in [5], 34.8 mg; in data set [6] it was 235.03 mg. Also, in data set [8], the logP at 24 h came to 1.32.
